Measurements as given in patent US20120220581A1, “IMIDAZO[1,2-b]PYRIDAZINE DERIVATIVES AND THEIR USE AS PDE10 INHIBITORS” (Janssen-Cilag, S.A., priority 2009, published 2012).

Columns and labels:
[1] = test system: female hooded-Lister rats; assay: Object recognition test (NOR) after sub-chronic PCP; type: in vivo, rat; conditions: for LMA (no. of lines crossed): mean
Procedure: 60 female hooded-Lister rats (Charles River, UK) were used as subjects for these studies and weighed 248 g±20 g. Rats were allowed at least a 7-day acclimatization period to the animal unit prior to commencement of experimentation. Rats were housed in groups of 5 under standard laboratory conditions under a 12 h light:dark cycle, lights on at 0700 h. All testing was carried out in the light phase. Food and water were freely provided. All experiments were conducted in accordance with the Animals Scientific Procedures Act, U.K. 1986 and were approved by the University of Bradford ethical review panel.
40 mg of test compound was dissolved in 5 ml of 40% hydroxypropyl β-cyclodextrin (HPBC) solution. The solution was sonicated until completely dissolved. 2 ml of sterile water was added and the pH measured and adjusted with NaOH solution (0.1N) to obtain pH ˜4. Finally, sterile water was added to a final volume of 10 ml. This stock solution was then diluted in 20% HPBC to obtain the final concentrations. 100 mg of PQ10 was dissolved in a 40% HPBC solution and 8 mg of tartaric acid. The solution was sonicated until completely dissolved. 5 ml of sterile water was added and the pH measured and adjusted with NaOH solution (0.1N) to obtain pH ˜4. Finally sterile water was added to a final volume of 10 ml.
Test compound was administered at doses of 0.3 and 1.0 mg/kg via the oral route 30 min prior to testing.
PQ10 was administered at a dose of 1.0 mg/kg via the oral route 30 min prior to testing.
Certain pre-clinical tests allow the observation of relatively subtle cognitive deficits in the rat that resemble cognitive symptoms in subjects with schizophrenia. The cognitive deficits observed are seen in behaviours such as episodic memory, which can be measured by recognition tasks such as the novel object recognition (NOR) paradigm. A recognition memory task allows the comparison between presented stimuli and previously stored information. Ennaceur, A Delacour, J (1988) A new one-trial test for neurobiological studies of memory in rats Behav Brain Res 31: 47-59 described the NOR test in rats which was based on the differential exploration of familiar and new objects. The NOR test is a non-rewarded, ethologically relevant paradigm based on the spontaneous exploratory behaviour of rats that measures episodic memory. Each session consists of two trials. In the first trial, the rats are exposed to two identical objects in an open field. During the second trial, rats are exposed to two dissimilar objects, one familiar object from the first trial and one new object. Object recognition in rats can be measured as the difference in time spent exploring the familiar and the new object. […] The duration of each trial is also important as a preference for the novel object only lasts during the first 1 or 2 minutes, after which time preference diminishes as both objects become familiar and are explored equally.
Rats were randomly assigned to the 8 treatment groups
Rats were allowed to habituate to the empty test box and the behavioural test room environment for 1 h on day 1. Prior to behavioural testing on day 2 rats were given a further 3 min habituation.
Following the 3 min habituation period, the rats were given two 3 min trials (T1 and T2) which were separated by a 1 min inter-trial interval in the home cage during which the objects were changed.
In this trial, the animals were allowed to explore two identical objects (A1 and A2) for 3 min.
In this trial, the animals explored a familiar object (A) from T1 and a novel object (B) for 3 min. The familiar object presented during T2 was a duplicate of the object presented in T1 in order to avoid any olfactory trails.
The object exploration was defined by animals licking, sniffing or touching the object with the forepaws whilst sniffing, but not leaning against, turning around, standing or sitting on the object. […]

[2] = target: other members of the PDE family (Homo sapiens, UniProt O60658); assay: In vitro PDE selectivity assay (SPA), other members of the PDE family (protocols in Table A); type: biochemical; conditions: hPDE8A1; read-out: PDE 8A1 (expressed as pIC50) (converted)
other members of the PDE family (Homo sapiens, UniProt O60658), sequence (O60658 whole entry, canonical isoform): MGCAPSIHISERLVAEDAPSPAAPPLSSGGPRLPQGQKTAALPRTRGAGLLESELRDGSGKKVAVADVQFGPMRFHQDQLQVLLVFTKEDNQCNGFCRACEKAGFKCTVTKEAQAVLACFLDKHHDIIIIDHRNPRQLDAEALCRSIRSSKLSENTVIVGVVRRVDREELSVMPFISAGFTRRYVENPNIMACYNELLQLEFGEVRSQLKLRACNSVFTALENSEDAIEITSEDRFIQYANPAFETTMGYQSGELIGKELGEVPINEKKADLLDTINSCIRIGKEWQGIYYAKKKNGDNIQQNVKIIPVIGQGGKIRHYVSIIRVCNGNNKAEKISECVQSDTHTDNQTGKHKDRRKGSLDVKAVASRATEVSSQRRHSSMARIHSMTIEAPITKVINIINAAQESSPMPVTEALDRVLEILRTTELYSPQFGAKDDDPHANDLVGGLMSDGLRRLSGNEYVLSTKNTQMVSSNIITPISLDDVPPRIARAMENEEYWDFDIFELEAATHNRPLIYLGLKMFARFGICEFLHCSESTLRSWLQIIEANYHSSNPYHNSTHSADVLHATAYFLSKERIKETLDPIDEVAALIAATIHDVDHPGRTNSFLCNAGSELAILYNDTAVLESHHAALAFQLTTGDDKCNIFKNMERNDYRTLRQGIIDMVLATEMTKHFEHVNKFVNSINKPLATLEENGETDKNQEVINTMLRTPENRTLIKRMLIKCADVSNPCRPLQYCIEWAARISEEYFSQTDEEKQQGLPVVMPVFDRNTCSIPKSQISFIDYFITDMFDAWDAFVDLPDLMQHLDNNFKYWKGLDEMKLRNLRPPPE
Procedure, shortened: (§1)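 Inhibition of each PDE isoform was measured by scintillation proximity assay with ³H-cyclic nucleotide substrate, using incubation buffer, substrate concentration, incubation time and stop solution adapted per isoform. Compounds were tested in dose-response against 1% DMSO controls and enzyme-free blanks. IC50 came from a least-squares fit of blank-subtracted % of control versus concentration.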

[3] = target: other members of the PDE family (Homo sapiens, UniProt P16499+P35913); assay: as above; type: biochemical; conditions: hPDE6AB; read-out: PDE 6AB (expressed as pIC50) (converted)
other members of the PDE family (Homo sapiens, UniProt P16499+P35913), sequence (P16499 whole entry): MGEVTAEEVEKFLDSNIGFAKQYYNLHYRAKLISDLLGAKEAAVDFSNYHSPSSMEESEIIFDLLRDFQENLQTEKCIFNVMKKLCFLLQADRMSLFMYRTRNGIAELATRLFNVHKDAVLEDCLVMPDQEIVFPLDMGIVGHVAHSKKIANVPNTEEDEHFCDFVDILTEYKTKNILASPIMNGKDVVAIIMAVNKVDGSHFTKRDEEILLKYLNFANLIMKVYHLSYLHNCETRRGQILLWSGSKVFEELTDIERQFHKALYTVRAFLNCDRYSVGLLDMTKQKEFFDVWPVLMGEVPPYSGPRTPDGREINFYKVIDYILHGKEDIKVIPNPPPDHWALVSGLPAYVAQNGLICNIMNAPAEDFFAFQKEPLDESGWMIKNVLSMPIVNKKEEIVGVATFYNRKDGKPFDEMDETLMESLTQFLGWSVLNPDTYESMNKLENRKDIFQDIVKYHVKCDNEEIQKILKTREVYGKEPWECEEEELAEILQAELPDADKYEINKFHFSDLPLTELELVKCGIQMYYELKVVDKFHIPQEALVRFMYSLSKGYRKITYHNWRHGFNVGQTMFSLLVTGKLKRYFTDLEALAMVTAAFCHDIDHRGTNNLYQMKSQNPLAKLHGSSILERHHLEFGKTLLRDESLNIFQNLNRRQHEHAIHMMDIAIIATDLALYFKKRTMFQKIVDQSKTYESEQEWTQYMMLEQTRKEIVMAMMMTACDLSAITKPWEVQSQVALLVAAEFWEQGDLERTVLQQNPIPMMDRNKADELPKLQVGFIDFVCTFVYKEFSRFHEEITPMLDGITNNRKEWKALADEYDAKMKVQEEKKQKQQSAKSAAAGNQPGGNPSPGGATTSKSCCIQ
other members of the PDE family (Homo sapiens, UniProt P16499+P35913), sequence (P35913 whole entry): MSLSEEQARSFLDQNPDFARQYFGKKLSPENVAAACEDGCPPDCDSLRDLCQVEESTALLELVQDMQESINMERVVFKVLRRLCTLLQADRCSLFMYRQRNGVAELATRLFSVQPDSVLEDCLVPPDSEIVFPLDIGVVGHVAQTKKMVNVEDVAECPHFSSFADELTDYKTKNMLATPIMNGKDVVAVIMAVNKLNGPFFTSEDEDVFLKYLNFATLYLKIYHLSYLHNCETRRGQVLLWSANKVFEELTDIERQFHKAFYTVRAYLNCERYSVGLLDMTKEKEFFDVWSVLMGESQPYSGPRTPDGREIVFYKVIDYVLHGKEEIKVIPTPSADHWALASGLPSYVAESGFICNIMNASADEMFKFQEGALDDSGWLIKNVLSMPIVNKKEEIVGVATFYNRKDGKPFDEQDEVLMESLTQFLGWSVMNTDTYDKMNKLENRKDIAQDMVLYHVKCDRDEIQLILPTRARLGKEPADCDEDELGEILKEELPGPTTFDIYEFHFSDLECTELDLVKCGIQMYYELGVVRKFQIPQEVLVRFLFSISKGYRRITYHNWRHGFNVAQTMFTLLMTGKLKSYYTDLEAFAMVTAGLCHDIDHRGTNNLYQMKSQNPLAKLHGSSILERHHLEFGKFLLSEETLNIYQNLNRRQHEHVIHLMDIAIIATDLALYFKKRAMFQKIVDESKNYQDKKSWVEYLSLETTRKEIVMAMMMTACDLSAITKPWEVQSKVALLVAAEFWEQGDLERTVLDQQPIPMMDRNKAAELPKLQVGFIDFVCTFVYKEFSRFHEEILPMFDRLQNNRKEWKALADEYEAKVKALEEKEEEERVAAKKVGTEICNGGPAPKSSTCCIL
Procedure, shortened: as §1

[4] = test system: female hooded-Lister rats; assay: Object recognition test (NOR) after sub-chronic PCP; type: in vivo, rat; conditions: Day 1, 3 min retention trial, mean

## COCCc1ccc(-c2c(C)nc3c(N4CCOCC4)ccnn23)cn1 [compound 1, 3-[6-(2-methoxyethyl)-3-pyridinyl]-2-methyl-8-(4-morpholinyl)-imidazo[1,2-b]pyridazine]
[1]; PCP + 0.3 mg/kg p.o.
  LMA (no. of lines crossed): 56.5 no. of lines crossed
[1]; PCP + 1 mg/kg p.o.
  LMA (no. of lines crossed): 56.4 no. of lines crossed
[1]; acute treatment, oral route 30 min prior to testing, compound 1 0.3-1.0 mg/kg, PQ10 1.0 mg/kg, sub-chronic PCP female rats
  effects of acute treatment in the NOR task: selective for the retention phase
[2]
  IC50: 77.6 µM
[3]
  IC50: 85.1 µM
[4]; PCP + 0.3 mg/kg p.o.
  T2(A) exploration time of familiar object, retention trial: 11.8 s
  T2(B) exploration time of novel object, retention trial: 17.6 s
[4]; PCP + 1 mg/kg p.o.
  T2(A) exploration time of familiar object, retention trial: 10.7 s
  T2(B) exploration time of novel object, retention trial: 22.3 s
